Measured values as given in the METLIN SMRT retention time set (Domingo-Almenara et al. 2019).

Experiment: gradient 5% acetonitrile 3 min, to 50% in 2 min, to 85% in 15 min, held 3 min, 100 µL/min
Details: column: Zorbax Extend-C18 2.1 x 50 mm; eluents: water / acetonitrile, 0.1% formic acid
Method in brief: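 A Zorbax Extend-C18 column (2.1 × 50 mm, 1.8 μm) run at 100 μL/min with water and acetonitrile, both containing 0.1% formic acid, separated mixtures of ~100 pure standards. The HPLC was coupled to a quadrupole time-of-flight mass spectrometer operated in positive and negative ionization mode, with dead and dwell volumes of 40 μL and 900 μL. Each retention time was taken from a computationally picked adduct peak that was then manually inspected.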

| SMILES | RP-LC retention time [s] |
| --- | --- |
| CCOC(=O)c1noc2nc(C)nc(Nc3cccc(F)c3)c12 | 1120 |
| CCCC(=O)N1CCCN(C2=NS(=O)(=O)C(c3ccc(C)cc3)=C2C)CC1 | 797 |
| C=C1C(=O)OCC2C(C(=O)O)=CC3C(C)C(C)=CC123 (centres undefined) | 730 |
| CCN1CCN(c2ncc(N3CCC(C(=O)NCC(C)C)CC3)cn2)CC1 | 582 |
| CCc1ccc(S(=O)(=O)N2CCC3(CC2)NCCN=C3NCc2ccc(F)cc2)cc1 | 753 |
| O=C(NCCOc1ccc(F)cc1)C1CCCN(c2ccc(-c3cccs3)nn2)C1 (centres undefined) | 702 |
| COc1cccc(N2C(=O)C3N=NN(Cc4nc(-c5ccc(Cl)cc5)no4)C3C2=O)c1 (centres undefined) | 1010 |
| Cc1cc(C(=O)NC(C)CCc2ccccc2)n(-c2ccccc2)n1 (centres undefined) | 942 |
| CCc1cc(=O)n(CC(=O)Nc2ccc(F)cc2C)c(N2CCOCC2)n1 | 760 |
| Cc1ccc(-c2noc(C3CCCN3S(=O)(=O)c3ccc4c(c3)CCC4)n2)cc1 (centres undefined) | 1280 |
| Cc1cccc(CNC(=O)C2CCN(C(=O)c3ncn4c3COC(c3ccccc3)C4)CC2)c1 (centres undefined) | 879 |
| CN1c2ccc(F)cc2C(=O)NC12CCN(C(=O)c1ccccc1F)CC2 | 745 |
| O=C(NCc1cccs1)C1CCCN(S(=O)(=O)c2c[nH]c(C(=O)N3CCCCCC3)c2)C1 (centres undefined) | 812 |
| CCCN(CCC)c1nc(C(=O)OCC)nc2ccccc12 | 812 |
| Cc1nn(C2CCS(=O)(=O)C2)c(C)c1N1CCN(CC(=O)Nc2ccccc2F)CC1 (centres undefined) | 558 |
| Cn1nc(C(=O)Nc2ccccc2)c2c1CCN(C(=O)CCC(=O)N1CCOCC1)C2 | 668 |
| c1ccc2c(c1)nnn2-c1ccncc1 | 699 |
| Clc1ccc(CNc2c(-c3ccc4c(c3)OCCO4)nc3ncccn23)cc1 | 722 |
| COc1ccccc1NC(=O)Cn1nc2cc(C)nc(-c3ccc(F)cc3)n2c1=O | 851 |
| O=C(Cn1c(N2CCCCC2)nc2ccccc2c1=O)NCc1ccc(Cl)cc1 | 946 |
| CCn1nccc1C(=O)Nc1cc(-c2cc3ccccc3n2CC)[nH]n1 | 876 |
| CCCCC(=O)Nc1ccc(N2CCOCC2)cc1C(=O)O | 578 |
| CCCN(C)CC1(O)CCC2(CCN(C(=O)c3ccoc3)CC2)CC1 | 575 |

| SMILES | RP-LC retention time [s] |
| --- | --- |
| CCN(CC)C(=O)c1ccc2oc(CN3CCN(C(=O)NCc4ccco4)CC3)nc2c1 | 626 |
| O=C(Nc1ccc(N2CCCS2(=O)=O)cc1)NC(c1ccccc1)c1ccccc1 | 814 |
| O=C1CC(c2ccccc2F)Cc2nc(N3CCN(c4ccccn4)CC3)ncc21 (centres undefined) | 702 |
| Cn1nc(C(=O)NCc2ccc3c(c2)OCO3)c2c1CCN(C(=O)C1CC1)C2 | 716 |
| Cc1ccc(-n2c(N3CCCC(C(=O)NCCN4CCCCC4)C3)nc3ccsc3c2=O)cc1 (centres undefined) | 617 |
| CCOC(=O)C1=C(C)NC2=C(C(=O)C(C(=O)OC)C(C)C2)C1c1cccc(F)c1 (centres undefined) | 908 |
| Cc1ccc(NC(=O)c2cccc3c2SCCC3=O)nc1 | 726 |
| O=C(NC1CCCCC1)C1CCCN(c2nnc3ccc(Cl)cn23)C1 (centres undefined) | 778 |
| CC(=O)Nc1cccc(NC(=O)C2CC(=O)N(c3n[nH]c4ccccc34)C2)c1 (centres undefined) | 625 |
| CNC(=O)N1CCCN(C2=NS(=O)(=O)C(c3ccc(C)c(C)c3)=C2C)CC1 | 711 |
| COCCCN(CC(=O)N1CCc2sccc2C1COc1ccc(F)cc1)C(C)=O (centres undefined) | 802 |
| CC(C)NC(=O)N1CCCC(c2cccc(C(=O)NC(C)c3ccc(F)cc3)c2)C1 (centres undefined) | 907 |
| CC(C)n1cc(CN2CCC3(CC2)CN(Cc2ccccc2)CC3CO)cn1 (centres undefined) | 524 |
| O=C(CC1CCCC1)Nc1cnc(-c2cccnc2)nc1 | 689 |
| O=C(Nc1cccc(Cl)c1Cl)C1(c2ccc(F)cc2)CC1 | 1280 |
| OC1(c2ccccn2)CCOC2(CCN(Cc3cccc(F)c3F)CC2)C1 (centres undefined) | 571 |
| Cc1ccc(S(=O)(=O)N2CCC(C(=O)NCc3csc(-c4cccs4)n3)CC2)cc1C | 950 |
| Cc1ccc(C(=O)NCc2nc(-c3ccc(-c4csc(C)n4)cc3)no2)cc1 | 964 |
| COc1ccccc1CNC(=O)c1nnc(-c2ccc(S(=O)(=O)N3CCCC3)cc2)o1 | 906 |
| COCCN(CC(=O)N1CCc2sccc2C1COc1cccc(F)c1)C(=O)CC(C)C (centres undefined) | 976 |
| CC(NC(=O)C(C)n1c2ccccc2c2cnn(C)c(=O)c21)C(=O)N1CCCCC1 (centres undefined) | 764 |
| O=C(Nc1cccc(-c2ccc(N3CCCC3)nn2)c1)c1ccccc1F | 647 |
| Cc1ccc(NC(=O)N2CCN(c3cnn4c(C)nnc4c3)CC2)c(C)c1 | 634 |

| SMILES | RP-LC retention time [s] |
| --- | --- |
| CC(C)Cc1nn(-c2ccccc2)cc1CN1CC(=O)NCC12CCCC2 | 720 |
| COc1ccccc1C(CNC(=O)c1cc(=O)c2cc(C)cc(C)c2o1)N(C)C (centres undefined) | 659 |
| CCc1ccccc1N1C(=O)c2c(C(=O)OC)ncn2CC1(C)C(=O)NCc1ccccc1 (centres undefined) | 735 |
| COc1ccc(CCC(=O)Nc2nc(-c3ccc(F)cc3F)cs2)cc1 | 1100 |
| O=C(CSc1nnc2c3sc(N4CCCC4)nc3ncn12)Nc1ccc(Cl)cc1 | 855 |
| CSc1cccc(NC(=O)Cn2c(Nc3cc(C)cc(C)c3)nc(C)cc2=O)c1 | 909 |
| CCCCNC(=O)CN1C(=O)CCn2nc(-c3cn(C)c4ccccc34)cc21 | 771 |
| COc1ccc(-n2c(=O)n(C)c(=O)c3cc(C(=O)Nc4ccc5c(c4)OCO5)cnc32)cc1 | 841 |
| O=c1ccn(-c2cccc(F)c2)nc1-c1nc(-c2ccccc2F)no1 | 846 |
| COc1ccccc1Oc1ccc(S(=O)(=O)NCC(=O)O)cc1 | 708 |
| CC(C)(C)CC(=O)NCCc1noc(C2CC2)n1 | 713 |
| CCc1ccccc1S(=O)(=O)N1CCC(N(C(=O)COC)C2CCOCC2)CC1 | 823 |
| CCOC(=O)N1CCN(C(=O)CCNc2c(-c3cccc(F)c3)nc3cnccn23)CC1 | 689 |
| CCc1ccc(N2C(=O)C3N=NN(Cc4nc(-c5cccc(C(F)(F)F)c5)no4)C3C2=O)cc1 (centres undefined) | 1130 |
| CCCNC(=O)c1cc(C)nc2c(C)cc(C)cc12 | 650 |
| CC1=C(c2ccccc2)S(=O)(=O)N=C1N1CCC(NC(=O)C2CCCO2)CC1 (centres undefined) | 702 |
| O=C(c1ccccc1C(F)(F)F)N1CCc2nc(-c3ccc(Cl)cc3)ncc2C1 | 1060 |
| CCN(CC)C(=O)Cn1nc2cc(C)nc(-c3cccc(Cl)c3)n2c1=O | 790 |
| COc1cc(-c2ccc(F)cc2)nc2ccc(NS(=O)(=O)c3ccc(C#N)cc3)cc12 | 784 |
| CC1CCN(C(=O)C2CCN(S(=O)(=O)c3ccc4c(c3)CCCC(=O)N4)CC2)CC1 | 744 |
| Cc1cc(SCC(=O)N2CCN(c3ccccc3)CC2)nc(-c2ccc(F)cc2)n1 | 1160 |
| O=C(NCc1nc2ccccc2n1CC(=O)N1CCCCCC1)c1ccco1 | 627 |
| CCOc1nccnc1N1CCC(N(C)C(=O)c2ccc(C)nc2)C1 (centres undefined) | 597 |

| SMILES | RP-LC retention time [s] |
| --- | --- |
| O=C(CCCc1ccccc1)Nc1ccc2c(c1)CCC(=O)N2 | 724 |
| Cn1ncc2c3ccccc3n(CCCC(=O)N3CCN(Cc4ccccc4)CC3)c2c1=O | 646 |
| CC(C)(C)c1noc(-c2ccc(-n3cnc(C(=O)NCc4ccccc4F)c3)nc2)n1 | 1050 |
| O=C(Nc1nc2c(s1)CN(C(=O)c1cnn(-c3ccccc3)n1)CC2)C1CCCO1 (centres undefined) | 762 |
| N#Cc1cccnc1N1CCN(c2ccccn2)CC1 | 590 |
| COc1ccc(-c2coc3cc(OCC(=O)O)ccc3c2=O)cc1 | 765 |
| COc1ccc(-c2csc(NC(=O)c3ccc([N+](=O)[O-])cc3)n2)cc1 | 1070 |
| CCn1cc(-c2nc(C(=O)Nc3cc(Cl)ccc3OC)cs2)c2cccnc21 | 1360 |
| CC(C)CNC(=O)C1CCN(C(=O)c2ncn3c2COC(c2ccc(F)cc2)C3)CC1 (centres undefined) | 711 |
| COc1ccc(OC)c(Nc2c(C(=O)N3CCC(C)CC3)cnc3nc(C)ccc23)c1 | 662 |
| CSc1ccc(NC(=O)COc2ccccc2)nn1 | 764 |
| Cc1noc2nc(C)n(CC(=O)NC(C)c3ccccc3)c(=O)c12 (centres undefined) | 756 |
| COc1ccc(C(=O)NCc2nnc(SCC(=O)N3CCCc4ccccc43)o2)cc1 | 677 |
| CC1(C(=O)NCc2ccccc2)CN(S(=O)(=O)c2ccccc2)CC(=O)N1C1CC1 (centres undefined) | 784 |
| CCCN(C(=O)Cc1ccccc1)c1nc(-c2ccccc2)cs1 | 1320 |
| Cc1cc(=O)n(CC(=O)Nc2ccc3c(c2)OCCO3)c(N2CCOCC2)n1 | 634 |
| O=C(c1ccccc1Br)N1CCN(Cc2noc3ccccc23)CC1 | 760 |
| COC(=O)c1cnc2nc(-c3ccccc3)nn2c1C | 832 |
| COc1cccc(C(=O)N2CCC3(CC2)NC(=O)c2cc(Cl)ccc2N3C)c1 | 800 |
| CCc1ccc(N2CC(c3noc(-c4ccc(OC)cc4OC)n3)CC2=O)cc1 (centres undefined) | 1040 |
